#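 Test compounds were applied to cells in 96-well plates for 48 hours at 5 doses. TGI is the concentration that stops growth completely.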
# Key:
# Experiment in all cases: DTP human tumour cell line panel, 48 h
# 786-0 renal = system: 786-0 renal
# HCC-2998 colon = system: HCC-2998 colon
# EKVX NSCLC = system: EKVX NSCLC
# BT-549 breast = system: BT-549 breast
# IGROV1 ovarian = system: IGROV1 ovarian
# SK-OV-3 ovarian = system: SK-OV-3 ovarian
# HOP-92 NSCLC = system: HOP-92 NSCLC
# SNB-75 CNS = system: SNB-75 CNS
# ACHN renal = system: ACHN renal
# SF-295 CNS = system: SF-295 CNS
# OVCAR-5 ovarian = system: OVCAR-5 ovarian
# RXF 393 renal = system: RXF 393 renal
# HL-60(TB) leukemia = system: HL-60(TB) leukemia
# SF-539 CNS = system: SF-539 CNS
# M14 melanoma = system: M14 melanoma
# HOP-62 NSCLC = system: HOP-62 NSCLC
# U251 CNS = system: U251 CNS
# DU-145 prostate = system: DU-145 prostate
# HT29 colon = system: HT29 colon
# NCI-H23 lung = system: NCI-H23 lung
# SK-MEL-5 melanoma = system: SK-MEL-5 melanoma
# NCI-H226 lung = system: NCI-H226 lung
# UACC-257 melanoma = system: UACC-257 melanoma
# HCT-15 colon = system: HCT-15 colon
# CAKI-1 renal = system: CAKI-1 renal
# OVCAR-4 ovarian = system: OVCAR-4 ovarian
# SK-MEL-28 melanoma = system: SK-MEL-28 melanoma
# SN12C renal = system: SN12C renal
# HCT-116 colon = system: HCT-116 colon
# OVCAR-8 ovarian = system: OVCAR-8 ovarian
# TK-10 renal = system: TK-10 renal
# UO-31 renal = system: UO-31 renal
# SNB-19 CNS = system: SNB-19 CNS
# A498 renal = system: A498 renal
# MDA-MB-231 breast = system: MDA-MB-231 breast
# PC-3 prostate = system: PC-3 prostate
# SW-620 colon = system: SW-620 colon
# SF-268 CNS = system: SF-268 CNS
# NCI/ADR-RES ovarian = system: NCI/ADR-RES ovarian
# SR leukemia = system: SR leukemia
# OVCAR-3 ovarian = system: OVCAR-3 ovarian
# MOLT-4 leukemia = system: MOLT-4 leukemia
# CCRF-CEM leukemia = system: CCRF-CEM leukemia
# COLO 205 colon = system: COLO 205 colon
# A549 NSCLC = system: A549 NSCLC
# MDA-MB-435 = system: MDA-MB-435
# RPMI-8226 leukemia = system: RPMI-8226 leukemia
# HS 578T breast = system: HS 578T breast
# MCF7 breast = system: MCF7 breast
# SK-MEL-2 melanoma = system: SK-MEL-2 melanoma
# UACC-62 melanoma = system: UACC-62 melanoma
# T-47D breast = system: T-47D breast
# K-562 leukemia = system: K-562 leukemia
# MALME-3M melanoma = system: MALME-3M melanoma
# NCI-H522 lung = system: NCI-H522 lung
# NCI-H460 lung = system: NCI-H460 lung
# KM12 colon = system: KM12 colon
structure (smiles),measurement,setting,value
CNCCCn1c2ccccc2c2c3c(c(-c4ccsc4)cc21)C(=O)NC3=O,TGI,786-0 renal,1.48 µM
same,TGI,HCC-2998 colon,55.5 µM
same,TGI,EKVX NSCLC,3.75 µM
same,TGI,BT-549 breast,13.7 µM
same,TGI,IGROV1 ovarian,2.4 µM
same,TGI,SK-OV-3 ovarian,2.63 µM
same,TGI,HOP-92 NSCLC,2220 nM
same,TGI,SNB-75 CNS,3.43 µM
same,TGI,ACHN renal,1.23 µM
same,TGI,SF-295 CNS,1.71 µM
same,TGI,OVCAR-5 ovarian,3.16 µM
same,TGI,RXF 393 renal,1.25 µM
same,TGI,HL-60(TB) leukemia,4 µM
same,TGI,SF-539 CNS,0.182 µM
same,TGI,M14 melanoma,1.7 µM
same,TGI,HOP-62 NSCLC,2.24 µM
same,TGI,U251 CNS,3.71 µM
same,TGI,DU-145 prostate,1.89 µM
same,TGI,HT29 colon,2.56 µM
same,TGI,NCI-H23 lung,1.74 µM
same,TGI,SK-MEL-5 melanoma,2.16 µM
same,TGI,NCI-H226 lung,23.6 µM
same,TGI,UACC-257 melanoma,3.12 µM
same,TGI,HCT-15 colon,2.74 µM
same,TGI,CAKI-1 renal,2.44 µM
same,TGI,OVCAR-4 ovarian,3.22 µM
same,TGI,SK-MEL-28 melanoma,3.36 µM
same,TGI,SN12C renal,2700 nM
same,TGI,HCT-116 colon,2.79 µM
same,TGI,OVCAR-8 ovarian,2070 nM
same,TGI,TK-10 renal,3.23 µM
same,TGI,UO-31 renal,0.218 µM
same,TGI,SNB-19 CNS,3.06 µM
same,TGI,A498 renal,< 0.0254 µM
same,TGI,MDA-MB-231 breast,3.06 µM
same,TGI,PC-3 prostate,1.78 µM
same,TGI,SW-620 colon,2920 nM
same,TGI,SF-268 CNS,4 µM
same,TGI,NCI/ADR-RES ovarian,2.19 µM
same,TGI,SR leukemia,0.349 µM
same,TGI,OVCAR-3 ovarian,2.6 µM
same,TGI,MOLT-4 leukemia,> 100 µM
same,TGI,CCRF-CEM leukemia,3.24 µM
same,TGI,COLO 205 colon,2.71 µM
same,TGI,A549 NSCLC,2760 nM
same,TGI,MDA-MB-435,2.35 µM
Oc1cn(-c2ccc(Cl)cc2)nc1-c1n[nH]c(=S)n1-c1ccccc1,TGI,786-0 renal,27.1 µM
same,TGI,EKVX NSCLC,82.1 µM
same,TGI,RPMI-8226 leukemia,> 100 µM
same,TGI,IGROV1 ovarian,22.2 µM
same,TGI,SK-OV-3 ovarian,51.3 µM
same,TGI,HOP-92 NSCLC,> 100000 nM
same,TGI,SNB-75 CNS,> 100 µM
same,TGI,ACHN renal,> 100 µM
same,TGI,HS 578T breast,55.1 µM
same,TGI,SF-295 CNS,19.8 µM
same,TGI,OVCAR-5 ovarian,46.2 µM
same,TGI,RXF 393 renal,36.9 µM
same,TGI,MCF7 breast,21.9 µM
same,TGI,HL-60(TB) leukemia,> 100 µM
same,TGI,SF-539 CNS,23.1 µM
same,TGI,M14 melanoma,20.4 µM
same,TGI,HOP-62 NSCLC,22.7 µM
same,TGI,U251 CNS,30.4 µM
same,TGI,DU-145 prostate,> 100 µM
same,TGI,SK-MEL-2 melanoma,52.7 µM
same,TGI,UACC-62 melanoma,28 µM
same,TGI,HT29 colon,44 µM
same,TGI,NCI-H23 lung,23.9 µM
same,TGI,SK-MEL-5 melanoma,15.4 µM
same,TGI,NCI-H226 lung,59.8 µM
same,TGI,UACC-257 melanoma,> 100 µM
same,TGI,HCT-15 colon,14.9 µM
same,TGI,CAKI-1 renal,35.3 µM
same,TGI,OVCAR-4 ovarian,> 100 µM
same,TGI,SK-MEL-28 melanoma,> 100 µM
same,TGI,SN12C renal,> 100000 nM
same,TGI,HCT-116 colon,18.7 µM
same,TGI,OVCAR-8 ovarian,34600 nM
same,TGI,TK-10 renal,58.7 µM
same,TGI,UO-31 renal,62.7 µM
same,TGI,T-47D breast,> 100 µM
same,TGI,K-562 leukemia,> 100 µM
same,TGI,SNB-19 CNS,> 100 µM
same,TGI,MALME-3M melanoma,62.9 µM
same,TGI,A498 renal,37.5 µM
same,TGI,MDA-MB-231 breast,> 100 µM
same,TGI,PC-3 prostate,> 100 µM
same,TGI,SW-620 colon,20400 nM
same,TGI,SF-268 CNS,64.2 µM
same,TGI,NCI/ADR-RES ovarian,14.1 µM
same,TGI,SR leukemia,94 µM
same,TGI,OVCAR-3 ovarian,9.4 µM
same,TGI,NCI-H522 lung,19.5 µM
same,TGI,NCI-H460 lung,59.4 µM
same,TGI,MOLT-4 leukemia,> 100 µM
same,TGI,KM12 colon,31.8 µM
same,TGI,COLO 205 colon,54.9 µM
same,TGI,A549 NSCLC,35600 nM
same,TGI,MDA-MB-435,5.09 µM
C(=C\c1ccc(-c2cn3cc(/C=C/C=N/NC4=NCCN4)ccc3n2)cc1)/C=N/NC1=NCCN1,TGI,HCC-2998 colon,2.6 µM
same,TGI,HOP-92 NSCLC,2510 nM
same,TGI,ACHN renal,3.01 µM
same,TGI,RXF 393 renal,4.79 µM
same,TGI,U251 CNS,2.26 µM
same,TGI,DU-145 prostate,5.44 µM
same,TGI,SK-MEL-2 melanoma,4.51 µM
same,TGI,NCI-H226 lung,3.27 µM
same,TGI,HCT-15 colon,> 100 µM
same,TGI,CAKI-1 renal,5.61 µM
same,TGI,OVCAR-8 ovarian,2670 nM
same,TGI,TK-10 renal,65.4 µM
same,TGI,UO-31 renal,19.8 µM
same,TGI,PC-3 prostate,3.97 µM
same,TGI,SW-620 colon,770 nM
same,TGI,NCI/ADR-RES ovarian,> 44.9 µM
same,TGI,SR leukemia,3.54 µM
same,TGI,NCI-H460 lung,1.92 µM
same,TGI,MOLT-4 leukemia,5.22 µM
same,TGI,KM12 colon,4.89 µM
same,TGI,CCRF-CEM leukemia,4.18 µM
same,TGI,A549 NSCLC,1980 nM
same,TGI,MDA-MB-435,3.54 µM

# Source: PubChem BioAssay (NCI)
